Here are results for 1 compound from US8969415B2, “Intraocular drug delivery systems” (Allergan, Inc., priority 2006, dated 2015).

The conditions of data set [1]: in vivo.
The test system of data set [2] is specific receptor target of brimonidine located in retina and iris-ciliary body.

The structures appear in SMILES notation. Where a name gives a salt, the structure may show the parent alone. Some results are limits rather than exact numbers.

Take `Brc1c(NC2=NCCN2)ccc2nccnc12` [brimonidine, 5-bromo-6-(2-imidazolidinylideneamino)quinoxaline tartrate]: the vitreal clearance in data set [1] is listed as 0.487 mL/day. Further, the “brimonidine concentration required for optic neuroprotection” value in data set [2] is not below 2 nM.
